The results in this text go back to patent publication US12403090B2, “Oral film compositions and dosage forms having precise active dissolution profiles” (Aquestive Therapeutics, Inc., priority 2018, dated 2025).

The data set is described as follows: Solubility of clobazam in COSF liquid mix and oral films. It is filed as physicochemical. The conditions noted are these: API or films in 1.5 ml water; wet mass as such. The procedure: An experiment was conducted to assess the solubility of clobazam in the liquid mix (pre-drying) and oral films (COSF). Oral thin films containing 10 mg and 20 mg clobazam were prepared and then dissolved in 1.5 ml water. Two other samples were evaluated—one being the active in water (without the excipients added to the composition for oral films); and second being the liquid mix for the film but tested prior to film forming (i.e., drying).

Take `CN1C(=O)CC(=O)N(c2ccccc2)c2cc(Cl)ccc21` [COSF API 10 mg, clobazam]: the “% Clobazam Dissolved in sample” value is 1.576% and the “Actual Clobazam (mg/ml) in supernatant” value amounted to 0.11 mg/mL.
